For six compounds, IC50 results are on record in US20180305341A1 (RAQUALIA PHARMA INC., priority 2015, published 2018).

The structures appear in SMILES notation.

For the experiment, the target named is T1, human TRPM8 (Homo sapiens, UniProt Q7Z2W7).
T1 construct: expressed in transfected cells
T1 sequence (Q7Z2W7 whole entry): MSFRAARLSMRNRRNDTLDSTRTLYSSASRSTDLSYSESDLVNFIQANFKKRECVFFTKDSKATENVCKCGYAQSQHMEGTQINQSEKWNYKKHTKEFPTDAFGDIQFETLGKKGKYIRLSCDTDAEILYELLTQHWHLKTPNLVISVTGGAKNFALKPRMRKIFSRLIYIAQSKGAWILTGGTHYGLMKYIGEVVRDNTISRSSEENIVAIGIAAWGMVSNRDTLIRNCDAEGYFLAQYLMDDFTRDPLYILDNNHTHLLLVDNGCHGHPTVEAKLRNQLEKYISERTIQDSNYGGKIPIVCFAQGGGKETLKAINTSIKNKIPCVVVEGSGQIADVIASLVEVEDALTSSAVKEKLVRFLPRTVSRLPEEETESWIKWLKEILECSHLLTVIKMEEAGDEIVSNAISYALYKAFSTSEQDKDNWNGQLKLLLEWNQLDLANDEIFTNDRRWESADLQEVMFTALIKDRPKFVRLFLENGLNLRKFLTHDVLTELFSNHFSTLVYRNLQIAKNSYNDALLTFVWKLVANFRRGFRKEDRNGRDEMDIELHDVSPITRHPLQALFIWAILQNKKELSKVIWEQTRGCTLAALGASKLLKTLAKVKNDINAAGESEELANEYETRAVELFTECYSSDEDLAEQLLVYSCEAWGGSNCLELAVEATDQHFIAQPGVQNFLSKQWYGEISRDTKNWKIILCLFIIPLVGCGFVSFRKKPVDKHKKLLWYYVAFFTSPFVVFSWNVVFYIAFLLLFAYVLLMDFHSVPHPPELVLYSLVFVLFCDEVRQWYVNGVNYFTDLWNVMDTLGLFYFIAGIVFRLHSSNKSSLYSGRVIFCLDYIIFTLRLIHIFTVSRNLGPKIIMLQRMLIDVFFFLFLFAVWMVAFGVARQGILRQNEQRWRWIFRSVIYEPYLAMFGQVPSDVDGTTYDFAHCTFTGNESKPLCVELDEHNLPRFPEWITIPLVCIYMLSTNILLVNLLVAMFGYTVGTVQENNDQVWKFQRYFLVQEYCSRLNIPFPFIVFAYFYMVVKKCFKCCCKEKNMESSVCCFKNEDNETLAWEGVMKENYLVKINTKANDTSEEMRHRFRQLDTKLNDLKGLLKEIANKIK
In words: Menthol-induced Ca2+ influx in HEK293 cells stably expressing human TRPM8. The experiment is classed as cell-based. As to conditions: 30 microM menthol, read-out: IC50 against TRPM8. The procedure: Measurement of the Menthol-Induced Ca^2+ Influx in HEK293 Cells Stably Expressing Human TRPM8
A cell-based Ca^2+ influx assay using HEK293 cells stably expressing human TRPM8 is used to identify the activity of compounds.
HEK293 cells stably expressing human TRPM8 are grown in T175 flasks at 37° C. in a 5% CO2 humidified incubator to about 80% confluence. Media composition consists of Dulbecco's Modified Eagle Medium (high glucose), 10% fetal calf serum (FCS), 100 units/mL Penicillin, 100 microg/mL Streptomycin and 600 microg/mL Geneticine. At 24 hours prior to assay, cells are seeded in poly-D-lysine coated 384-well plates (BD FALCON) at a density of 30,000 cells per well in culture medium and grown overnight in 5% CO2 at 37° C. On the assay day, growth media is removed and cells are loaded with 0.5 microM Fluo4-AM (Molecular Probes) and 0.005% Pluronic F-127 dissolved in assay buffer (Hank's balanced salt solution (HBSS), 19.4 mM HEPES pH 7.4, 2.5 mM Probenecid) for 1 hour at room temperature. After washing with assay buffer, the cells are preincubated with various concentrations of the compounds for 5 min. The changes in intracellular calcium concentration by addition of 30 microM menthol are monitored by the cell imaging technology by Hamamatsu Photonics Functional Drug Screening System (FDSS).
The IC50 values for compounds of the present invention are determined from 11-point dose-response studies. Curves are generated using the average of duplicate wells for each data point. Finally, the IC50 values are calculated with the best-fit dose curve determined by XLfit (ID Business Solutions Ltd.).
With `CC1=NC2(CCC(F)(F)CC2)C(=O)N1CC(=O)c1ccc(Oc2cccnn2)cc1` [Example 1], the IC50 was less than 50 nM.
Take `CC1=NC2(CCCCC2)C(=O)N1CC(=O)c1ccc(-n2c(C)nc3ccccc32)cc1` [Example 2, 2-methyl-3-(2-(4-(2-methyl-1H-benzo[d]imidazol-1-yl)phenyl)-2-oxoethyl)-1,3-diazaspiro[4.5]dec-1-en-4-one]: the IC50 is less than 50 nM.
In the case of `CCC1=NC2(CCC(F)(F)CC2)C(=O)N1CC(=O)c1ccc(Oc2cccnn2)cc1` [Example 3, 2-ethyl-8,8-difluoro-3-(2-oxo-2-(4-(pyridazin-3-yloxy)phenyl)ethyl)-1,3-diazaspiro[4.5]dec-1-en-4-one], the half-maximal inhibitory concentration (IC50) was less than 50 nM.
As for `CC1=NC2(CCC(F)(F)CC2)C(=O)N1CC(=O)c1ccc(-c2nnccc2C)cc1` [Example 4, 8,8-difluoro-2-methyl-3-(2-(4-(4-methylpyridazin-3-yl)phenyl)-2-oxoethyl)-1,3-diazaspiro[4,5]dec-1-en-4-one], the figure is less than 100 nM.
Consider `CC1=NC2(CCC(F)(F)CC2)C(=O)N1CC(=O)c1ccc(-n2c(C)nc3ccccc32)cc1` [Example 5, 8,8-difluoro-2-methyl-3-(2-(4-(2-methyl-1H-benzo[d]imidazol-1-yl)phenyl)-2-oxoethyl)-1,3-diazaspiro[4.5]dec-1-en-4-one], for which the concentration for half-maximal inhibition (IC50) is less than 50 nM.
For `CC1=NC2(CCC(F)(F)CC2)C(=O)N1CC(=O)c1ccc(-n2c(C)nc3cccnc32)cc1` [Example 6, 8,8-difluoro-2-methyl-3-(2-(4-(2-methyl-3H-imidazo[4,5-b]pyridin-3-yl)phenyl)-2-oxoethyl)-1,3-diazaspiro[4.5]dec-1-en-4-one], the half-maximal inhibitory concentration (IC50) was less than 50 nM.

Broadly, the IC50 is the concentration that inhibits the measured activity by half.
